# Source: US12446577B2 (priority 2018, dated 2025)
# Assays:
# Plasmopara viticola = Plasmopara viticola grapevine leaf disc test; format: in vivo
# Method: A stock solution of choline pelargonate (29.1% PLA and 40.4% Choline hydroxide, pH 8.82) was made by mixing 14.55 mL PLA with 15.25 mL distilled water and afterwards the addition of 20.2 mL of Choline hydroxide. The choline pelargonate stock solution (42.04%) was diluted in order to create a solution with a final concentration of choline pelargonate equal to 1 mL/L and 10 mL/L. The two choline pelargonate solutions, water as negative control and copper hydroxide (2 g/L) as positive control were used for this test. For each object 4 Petri plates were prepared and each plate contains 5 grapevine leaf discs (see Table 8 below).
# Leaf discs preparation: leaf discs (diameter 19 mm) were prepared from grapevine cuttings (variety Pinot Nero Entav 115) using the young leaves. 5 leaf discs were placed in each Petri Plate on autoclaved paper (4 layers), the paper was previously wetted by adding 8.5 mL of sterile water in each plate. The leaf discs were placed on the paper with the abaxial side upward.
# Test products application and pathogen inoculation: leaf discs were treated with the test products at 11.30 A.M (i.e. a preventive application) and the leaves were allowed to dry. The products were sprayed with a small hand sprayer; 5 sprays were applied on each plate. The same day at 16.30 a suspension of P. viticola spores at final concentration of 2*10^5 spore/mL was applied (5 hours after test product application) on the leaf discs. The inoculated plates were incubated overnight in the dark at 25° C. The following day, the leaf discs were dried under the laminar flow and then placed back at 25° C. The disease assessment was done 7 days after the artificial inoculation.
# apple trees = test: Phytotoxicity on apple trees in the powdery mildew trial; format: in vivo; conditions: repeated applications during the season, 10 mL/L
# Excerpt: (§1) During the third week of March 2017, 60 branched apple trees (rootstock M9—clone Golden B) of 2 years were transplanted from a local nursery into pots (pot: 12 Liters). The 60 potted apple plants were maintained outside the greenhouse in S. Michele all′Adige (Trento). Plants were maintained divided in 3 blocks. Each block was composed of 20 plants arranged in two rows (See scheme 1). Plants were watered through a drip irrigation system once or twice a week according to the weather conditions. The insecticidal treatments were applied uniformly on all the experimental plants. Two of the three objects were treated against powdery mildew in accordance with the foreseen spray scheme: Chemical treatments, TMAP alone, untreated. One object was maintained Untreated as reference. For the “Chemical” object, different active ingredients were used alone or in combination (Table 13).
# The treatments were performed at the same time, and timings of spray were done weekly and according to the weather conditions. The applications were done with a pressurized hand sprayer (water volume 1.5-2 L per object).
# Pythium ultimum = test: Mycelium growth inhibition on PDA (Example 7); format: cell-based; conditions: 3 days at 25° C; for Average mycelium diameter: n = 4
# Method: (§2) Strains used for this trial were kept and refreshed on Potato Dextrose Agar (PDA) at 25° C.
# (§3) To begin, a quantity of test product was directly added in a certain volume of PDA (about 20 mL/petri dish) (Table 11). Plugs of agar (diameter 10 mm) from one week-old cultures were placed at the centre of the PDA plates. Each object was performed in 4 repetitions. The petri dishes were then incubated at 25° C. in the dark. After 3 and 6 days of incubation, the diameter of the colonies was measured in 2 perpendicular directions. The percentage of inhibition was calculated for each product/concentration compare to the untreated.
# Rhizoctonia solani = test: Mycelium growth inhibition on PDA (Example 7); format: cell-based; conditions: 3 days at 25° C; for Average mycelium diameter: n = 4
# Method: as §2, §3
# Sclerotinia sclerotiorum = test: Mycelium growth inhibition on PDA (Example 7); format: cell-based; conditions: 3 days at 25° C; for Average mycelium diameter: n = 4
# Method: as §2, §3
# Sclerotinia minor = test: Mycelium growth inhibition on PDA (Example 7); format: cell-based; conditions: 3 days at 25° C; for Average mycelium diameter: n = 4
# Method: as §2, §3
# Botrytis cinerea = test: Mycelium growth inhibition on PDA (Example 7); format: cell-based; conditions: 3 days at 25° C; for Average mycelium diameter: n = 4
# Method: as §2, §3
# lettuce plants = test: Phytotoxicity on lettuce plants after spraying; format: in vivo; conditions: 2.5% pelargonic acid, sprayed until run-off, n = 6, scale 0 to 100%
# Method: A neutralization reaction was made with pelargonic acid (>97%) and choline hydroxide (45%) based on the titration curve (FIG. 1). Based on the titration curve, a stock solution of choline pelargonate (29.1% PLA (>97%) and 40.4% Choline hydroxide (45%)) was made by mixing 14.55 mL pelargonic acid with 15.25 mL distilled water and afterwards the addition of 20.2 mL choline hydroxide. The choline pelargonate stock solution was diluted in distilled water to obtain a diluted choline pelargonate composition comprising about 2.5% pelargonic acid. The total concentration of choline pelargonate in the water spray solution was 37.08 g a.i./L (a.i.=active ingredient).
# The next step was to assess the phytotoxicity of a composition comprising choline pelargonate on lettuce plants. As a control, plants were treated with water. The plants were also treated with a diluted pelargonic acid composition, including a diluted pelargonic acid solution based on the commercial product Beloukha (Belchim Crop Protection).
# Lettuce plants were sprayed with a small hand sprayer until run-off with the respective compositions and incubated at 20° C. Each composition was tested with a setup consisting out of six plants. A visual assessment was made on lettuce plants after spraying. The effect of phytotoxicity (necrosis or discolouration) was scored by a scale from 0 to 100%, with 0% no phytotoxicity and 100% fully phytotoxicity on plants.
# powdery mildew on apple = test: Trial on potted apple trees against powdery mildew; format: in vivo; conditions: day 85; weekly sprays (TMAP 10 mL/L; Chemical per Table 13/14); 1000 leaves per object
# Excerpt: as §1
# The treatments were performed at the same time, and timings of spray were done weekly and according to the weather conditions. […]
# Powdery mildew: 5 shoots per each plant were randomly selected and labeled for the assessments. The assessment on powdery mildew was done on day 85, ten leaves of each shoot were singularly evaluated for the presence of symptoms, 5 marked shoots per plant were assessed. […]
# Data of powdery mildew incidence were analyzed using the Statistica 13.1 software.
# Bintje leaflets = test: Phytotoxicity symptoms on dipped potato leaflets (Example 4); format: in vivo; conditions: highest concentration (10 L/ha), 7 days
smiles,measurement,setting,value
"CCCCCCCCC(=O)[O-].C[N+](C)(C)CCO [Choline pelargonate, choline pelargonate]",disease severity (level of sporulation),"Plasmopara viticola; 1 mL/L, preventive spray, 7 days after the artificial inoculation",5.3%
same,disease severity,"Plasmopara viticola; 10 mL/L, preventive spray, 7 days after the artificial inoculation",0%
same,efficacy against P. viticola,Plasmopara viticola; test repeated a second and a third time (data not shown),comparable with the reference copper
same,symptoms of phytotoxicity on the plants,apple trees,no symptoms of phytotoxicity
same,% efficacy compared to control (Abbott),Pythium ultimum; 0.042% a.i. in PDA,100%
same,Average mycelium diameter,Pythium ultimum; 0.042% a.i. in PDA,0.0 ± 0.0 mm
same,% efficacy compared to control (Abbott),Pythium ultimum; 0.42% a.i. in PDA,100%
same,Average mycelium diameter,Pythium ultimum; 0.42% a.i. in PDA,0.0 ± 0.0 mm
same,% efficacy compared to control (Abbott),Rhizoctonia solani; 0.042% a.i. in PDA,67%
same,Average mycelium diameter,Rhizoctonia solani; 0.042% a.i. in PDA,17.1 ± 1.9 mm
same,% efficacy compared to control (Abbott),Rhizoctonia solani; 0.42% a.i. in PDA,100%
same,Average mycelium diameter,Rhizoctonia solani; 0.42% a.i. in PDA,0.3 ± 0.5 mm
same,% efficacy compared to control (Abbott),Sclerotinia sclerotiorum; 0.042% a.i. in PDA,98%
same,Average mycelium diameter,Sclerotinia sclerotiorum; 0.042% a.i. in PDA,1.4 ± 0.5 mm
same,% efficacy compared to control (Abbott),Sclerotinia sclerotiorum; 0.42% a.i. in PDA,100%
same,Average mycelium diameter,Sclerotinia sclerotiorum; 0.42% a.i. in PDA,0.0 ± 0.0 mm
same,% efficacy compared to control (Abbott),Sclerotinia minor; 0.042% a.i. in PDA,96%
same,Average mycelium diameter,Sclerotinia minor; 0.042% a.i. in PDA,2.8 ± 4.3 mm
same,% efficacy compared to control (Abbott),Sclerotinia minor; 0.42% a.i. in PDA,99%
same,Average mycelium diameter,Sclerotinia minor; 0.42% a.i. in PDA,0.8 ± 0.9 mm
same,% efficacy compared to control (Abbott),Botrytis cinerea; 0.042% a.i. in PDA,98%
same,Average mycelium diameter,Botrytis cinerea; 0.042% a.i. in PDA,0.9 ± 1.8 mm
same,% efficacy compared to control (Abbott),Botrytis cinerea; 0.42% a.i. in PDA,100%
same,Average mycelium diameter,Botrytis cinerea; 0.42% a.i. in PDA,0.0 ± 0.0 mm
same,Phytotoxicity (%) evaluation on lettuce plants,lettuce plants; 0 DAA,0.00%
same,Phytotoxicity (%) evaluation on lettuce plants,lettuce plants; 1 DAA,1.33%
same,Phytotoxicity (%) evaluation on lettuce plants,lettuce plants; 2 DAA,1.67%
same,Phytotoxicity (%) evaluation on lettuce plants,lettuce plants; 7 DAA,3.50%
same,disease incidence (percentage of infected leaves),powdery mildew on apple,25.5%
same,phytotoxicity symptoms on leaflets,Bintje leaflets,some minor phytoxicity symptoms on the edge and stem
